Results from patent US20240287097A1, “COMPOUNDS AND METHODS FOR MODULATING SPLICING” (REMIX THERAPEUTICS INC., priority 2020, published 2024).

How the values were obtained:
Format in all cases: cell-based
[1] = tested on: HTT mRNA, alternative junction (AJ); test: Splicing RT-qPCR assay, HTT alternative junction (AJ) mRNA increase; conditions: A673 or K562 cells, 24 hours compound treatment, 50% response in AJ increase
Procedure: (§1) Compounds described herein were used to modulate RNA transcript abundance in cells. The expression of a target mRNA was measured by detecting the formation of an exon-exon junction in the canonical transcript (CJ). A compound mediated exon-inclusion event was detected by observing an increase in formation of a new junction with an alternative exon (AJ). Real-time qPCR assays were used to detect these splicing switches and interrogate the potency of various compounds towards different target genes. A high-throughput real time quantitative PCR (RT-qPCR) assay was developed to measure these two isoforms of the mRNA (CJ and AJ) for an exemplary gene, HTT, together with a control housekeeping gene, GAPDH or GUSB or PPIA, used for normalization. Briefly, the A673 or K562 cell line was treated with various compounds described herein (e.g., compounds of Formula (I)). After treatment, the levels of the HTT mRNA targets were determined from each sample of cell lysate by cDNA synthesis followed by qPCR.
(§2) • Cells-to-CT 1-step kit: ThermoFisher A25602, Cells-to-CT lysis reagent: ThermoFisher 4391851C, TagMan™ Fast Virus 1-Step Master Mix: ThermoFisher 4444436 • GAPDH: VIC-PL, ThermoFisher 4326317E (Assay: Hs99999905 m1)—used for K562/suspension cell lines • GUSB: VIC-PL, ThermoFisher 4326320E (Assay: Hs99999908 m1)—used for K562/suspension cell lines • PPIA: VIC-PL, ThermoFisher 4326316E (Assay: Hs99999904 m1)—used for A673/adherent cell lines
(§3) The A673 cell line was cultured in DMEM with 10% FBS. Cells were diluted with full growth media and plated in a 96-well plate (15,000 cells in 100 ul media per well). The plate was incubated at 37° C. with 5% CO2 for 24 hours to allow cells to adhere. An 11-point 3-fold serial dilution of the compounds was made in DMSO then diluted in media in an intermediate plate. Compounds were transferred from the intermediate plate to the cell plate with the top dose at a final concentration of 10 uM in the well. Final DMSO concentration was kept at or below 0.25%. The cell plate was returned to the incubator at 37° C. with 5% CO2 for an additional 24 hours.
(§4) The K562 cell line was cultured in IMDM with 10% FBS. For K562, cells were diluted with full growth media and plated in either a 96-well plate (50,000 cells in 50 uL media per well) or a 384-well plate (8,000-40,000 cells in 45 uL media per well). An 11-point 3-fold serial dilution of the compounds were made in DMSO then diluted in media in an intermediate plate. Compound was transferred from the intermediate plate to the cell plate with the top dose at a final concentration of 10 uM in the well. Final DMSO concentration was kept at or below 0.25%. Final volume was 100 uL for 96-well plate and 50 uL for 384-well plate. The cell plate was then placed in an incubator at 37° C. with 5% CO2 for 24 hours.
(§5) The cells were then gently washed with 50 uL-100 uL cold PBS before proceeding to addition of lysis buffer. 30 uL-50 uL of room temperature lysis buffer with DNAse I (and optionally RNAsin) was added to each well. Cells were shaken/mixed thoroughly at room temperature for 5-10 minutes for lysis to take place and then 3 uL-5 uL of room temperature stop solution was added and wells were shaken/mixed again. After 2-5 minutes, the cell lysate plate was transferred to ice for RT-qPCR reaction setup. The lysates could also be frozen at ˜80° C. for later use.
(§6) In some cases, a direct lysis buffer was used. An appropriate volume of 3×lysis buffer (10 mM Tris, 150 mM NaCl, 1.5%-2.5% Igepal and 0.1-1 U/uL RNAsin, pH 7.4) was directly added to either K562 or A673 cells in media and mixed by pipetting 3 times. The plates were then incubated at room temperature with shaking/rocking for 20-50 minutes to allow for lysis to take place. After this time, the cell lysate plate was transferred to ice to set up for the RT-qPCR reactions. The lysates could also be frozen at −80° C. for later use. […]

[2] = tested on: HTT mRNA, canonical junction (CJ); test: Splicing RT-qPCR assay, HTT canonical junction (CJ) mRNA decrease; conditions: A673 or K562 cells, 24 hours compound treatment, 50% response in CJ decrease
Procedure: as §1, §2, §3, §4, §5, §6

HTT CJ mRNA transcript = test: Gene panel canonical junction qPCR assay, HTT; conditions: 50% response in CJ decrease, read-out: HTT IC50 (decrease in CJ mRNA levels)
Procedure: as §1, §3, §4
(§7) The data analysis was performed by first determining the ΔCt vs the housekeeper gene. This ΔCt was then normalized against the DMSO control (ΔΔCt) and converted to RQ (relative quantification) using the 2^(−ΔΔCt) equation. The RQ were then converted to a percentage response by arbitrarily setting an assay window of 3.5 ΔCt for HTT-CJ and an assay window of 9 ΔCt for HTT-AJ. […] The percentage response was then fitted to the 4 parametric logistic equation to evaluate the concentration dependence of compound treatment. The increase in AJ mRNA is reported as AC50 (compound concentration having 50% response in AJ increase) while the decrease in CJ mRNA levels is reported as IC50 (compound concentration having 50% response in CJ decrease).
(§8) Additional studies were carried out for a larger panel of genes using the protocol provided above. The junction between flanking upstream and downstream exons was used to design canonical junction qPCR assays. At least one of the forward primer, reverse primer or the CY5-labeled 5′ nuclease probe (with 3′ quencher such as ZEN/Iowa Black FQ) was designed to overlap with the exon junction to capture the CJ mRNA transcript. BLAST was used to confirm the specificity of the probeset and parameters such as melting temperature, GC content, amplicon size, and primer dimer formation are considered during their design. Data for the decrease in CJ mRNA levels for three exemplary genes (HTT, SMN2, and Target C) analyzed in this panel are reported as IC50 (compound concentration having 50% response in CJ decrease).

SMN2 CJ mRNA transcript = test: Gene panel canonical junction qPCR assay, SMN2; conditions: 50% response in CJ decrease, read-out: SMN2 IC50 (decrease in CJ mRNA levels)
Procedure: as §1, §3, §4, §7, §8

[3] = tested on: Target C CJ mRNA transcript; test: Gene panel canonical junction qPCR assay, Target C; conditions: 50% response in CJ decrease, read-out: Target C IC50 (decrease in CJ mRNA levels)
Procedure: as §1, §3, §4, §7, §8

| SMILES | AC50 [1] | AC50 [2] | IC50 (HTT CJ mRNA transcript) | IC50 (SMN2 CJ mRNA transcript) | IC50 [3] |
| --- | --- | --- | --- | --- | --- |
| CN1CCC(c2nc3c(=O)n(-c4ccc5nn(C)cc5c4)cnc3s2)CC1 [Compound 176, 6-(2-methyl-2H-indazol-5-yl)-2-(1-methylpiperidin-4-yl)thiazolo[5,4-d]pyrimidin-7(6H)-one] | > 10 µM | > 10 µM | > 10 µM | > 10 µM | > 10 µM |
| Cc1cc(-c2nc3c(=O)n(C4CCN(C)CC4)cnc3s2)cc2cn(C)nc12 [Compound 179, 2-(2,7-dimethyl-2H-indazol-5-yl)-6-(1-methylpiperidin-4-yl)thiazolo[5,4-d]pyrimidin-7(6H)-one] | > 10 µM | > 10 µM | > 10 µM | 0.1 to 1 µM | – |
| CN1CCN(c2nc3c(=O)n(-c4ccc5nn(C)cc5c4)cnc3s2)CC1 [Compound 181, 6-(2-methyl-2H-indazol-5-yl)-2-(4-methylpiperazin-1-yl)thiazolo[5,4-d]pyrimidin-7(6H)-one] | > 10 µM | > 10 µM | > 10 µM | > 10 µM | – |
| Cn1cc2cc(-n3cnc4sc(N5CCN(Cc6ccc(F)cc6)CC5)nc4c3=O)ccc2n1 [Compound 185, 2-(4-(4-fluorobenzyl)piperazin-1-yl)-6-(2-methyl-2H-indazol-5-yl)thiazolo[5,4-d]pyrimidin-7(6H)-one] | > 10 µM | > 10 µM | > 10 µM | > 10 µM | – |
| Cc1cn2cc(-c3nc4c(=O)n(C5CCN(C)CC5)cnc4s3)cc(F)c2n1 [Compound 186, 2-(8-fluoro-2-methylimidazo[1,2-a]pyridin-6-yl)-6-(1-methylpiperidin-4-yl)thiazolo[5,4-d]pyrimidin-7(6H)-one] | 1 to 10 µM | 1 to 10 µM | 1 to 10 µM | 1 to 10 µM | – |
| Cc1cc(-c2nc3c(=O)n(C4CC(C)(C)N(C=O)C(C)(C)C4)cnc3s2)cc2cn(C)nc12 [Compound 187, 4-(2-(2,7-dimethyl-2H-indazol-5-yl)-7-oxothiazolo[5,4-d]pyrimidin-6(7H)-yl)-2,2,6,6-tetramethylpiperidine-1-carbaldehyde] | > 10 µM | 1 to 10 µM | 1 to 10 µM | > 10 µM | – |
| CN1CC=C(c2nc3c(=O)n(-c4ccc5nn(C)cc5c4)cnc3s2)CC1 [Compound 188, 2-(1-methyl-1,2,3,6-tetrahydropyridin-4-yl)-6-(2-methyl-2H-indazol-5-yl)thiazolo[5,4-d]pyrimidin-7(6H)-one] | > 10 µM | > 10 µM | > 10 µM | > 10 µM | 1 to 10 µM |
| CN1CCC(Nc2nc3c(=O)n(-c4ccc5nn(C)cc5c4)cnc3s2)CC1 [Compound 189, 6-(2-methyl-2H-indazol-5-yl)-2-((1-methylpiperidin-4-yl)amino)thiazolo[5,4-d]pyrimidin-7(6H)-one] | > 10 µM | > 10 µM | > 10 µM | > 10 µM | > 10 µM |
| CN1CCC(N(C)c2nc3c(=O)n(-c4ccc5nn(C)cc5c4)cnc3s2)CC1 [Compound 190, 2-(methyl(1-methylpiperidin-4-yl)amino)-6-(2-methyl-2H-indazol-5-yl)thiazolo[5,4-d]pyrimidin-7(6H)-one] | > 10 µM | > 10 µM | > 10 µM | > 10 µM | > 10 µM |
| Cn1cc2cc(-n3cnc4sc(N5CCNCC5)nc4c3=O)ccc2n1 [Compound 219, 6-(2-methyl-2H-indazol-5-yl)-2-(piperazin-1-yl)thiazolo[5,4-d]pyrimidin-7(6H)-one] | > 10 µM | > 10 µM | > 10 µM | > 10 µM | > 10 µM |
| Cc1cn2cc(-n3cnc4sc(N5CCNCC5)nc4c3=O)cc(F)c2n1 [Compound 220, 6-(8-fluoro-2-methylimidazo[1,2-a]pyridin-6-yl)-2-(piperazin-1-yl)thiazolo[5,4-d]pyrimidin-7(6H)-one] | > 10 µM | > 10 µM | > 10 µM | > 10 µM | 1 to 10 µM |
| Cc1cn2cc(-n3cnc4sc(N5CCN(C)CC5)nc4c3=O)cc(F)c2n1 [Compound 221, 6-(8-fluoro-2-methylimidazo[1,2-a]pyridin-6-yl)-2-(4-methylpiperazin-1-yl)thiazolo[5,4-d]pyrimidin-7(6H)-one] | > 10 µM | > 10 µM | > 10 µM | > 10 µM | > 10 µM |
| Cc1cn2cc(-n3cnc4sc(N5CCNCC5)nc4c3=O)cc(C(F)(F)F)c2n1 [Compound 223, 6-(2-methyl-8-(trifluoromethyl)imidazo[1,2-a]pyridin-6-yl)-2-(piperazin-1-yl)thiazolo[5,4-d]pyrimidin-7(6H)-one] | > 10 µM | > 10 µM | > 10 µM | > 10 µM | > 10 µM |
| Cc1cn2cc(-n3cnc4sc(N5CCN(C)CC5)nc4c3=O)cc(C(F)(F)F)c2n1 [Compound 224, 6-(2-methyl-8-(trifluoromethyl)imidazo[1,2-a]pyridin-6-yl)-2-(4-methylpiperazin-1-yl)thiazolo[5,4-d]pyrimidin-7(6H)-one] | > 10 µM | > 10 µM | – | – | – |
